Measurements from patent US10233188B2, “CDK2/4/6 inhibitors” (priority 2016, dated 2019).

Legend:
CDK6/Cyclin D1 = CDK6/Cyclin D1 (Homo sapiens (Human), UniProt Q00534); assay: biochemical; settings: CDK6_Ki (nM), non-phosphorylated CDK6/Cyclin D1, 2 mM ATP, Morrison fit
CDK2/Cyclin E1 = CDK2/Cyclin E1 (Homo sapiens (Human), UniProt P24941); assay: biochemical; settings: CDK2_Ki (nM), phosphorylated CDK2/Cyclin E1, 150 μM ATP, Morrison tight-binding fit
Method: The assay was initiated with the addition of ATP, following a fifteen minutes pre-incubation of enzyme and inhibitor at room temperature in the reaction mixture. The reaction was stopped after 45 minutes at room temperature by the addition of 50 μL of 80 mM EDTA, pH 7.5.

Sequence of CDK6/Cyclin D1 (Q00534 whole entry): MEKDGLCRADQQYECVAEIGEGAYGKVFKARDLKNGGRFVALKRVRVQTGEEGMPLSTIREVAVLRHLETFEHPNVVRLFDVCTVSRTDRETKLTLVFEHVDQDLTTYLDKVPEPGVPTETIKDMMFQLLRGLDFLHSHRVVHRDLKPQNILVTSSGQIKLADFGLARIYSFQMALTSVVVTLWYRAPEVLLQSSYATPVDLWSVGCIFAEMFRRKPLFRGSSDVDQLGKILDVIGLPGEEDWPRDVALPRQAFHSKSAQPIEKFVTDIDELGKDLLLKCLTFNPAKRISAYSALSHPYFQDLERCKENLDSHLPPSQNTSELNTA
Sequence of CDK6/Cyclin D1 (P24385 whole entry partner): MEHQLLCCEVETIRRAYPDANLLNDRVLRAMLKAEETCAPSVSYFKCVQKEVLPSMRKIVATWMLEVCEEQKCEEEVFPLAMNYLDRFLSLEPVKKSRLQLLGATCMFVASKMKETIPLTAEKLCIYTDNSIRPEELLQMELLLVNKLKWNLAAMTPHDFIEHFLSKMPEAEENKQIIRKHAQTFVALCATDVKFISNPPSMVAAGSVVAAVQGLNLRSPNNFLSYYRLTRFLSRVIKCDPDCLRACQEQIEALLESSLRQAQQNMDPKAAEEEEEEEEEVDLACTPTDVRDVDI

| Ki (CDK6/Cyclin D1) | Ki (CDK2/Cyclin E1) | Compound |
| --- | --- | --- |
| 1.6 nM | 0.45 nM | C[C@@]1(O)CCC[C@H]1n1c(=O)ccc2cnc(NC3CCN(S(=O)(=O)CC(F)(F)F)CC3)nc21 (single isomer, unassigned) [Example 86, (−)-8-[(1R*,2R*)-2-hydroxy-2-methylcyclopentyl]-2-({1-[(2,2,2-trifluoroethyl)sulfonyl]piperidin-4-yl}amino)pyrido[2,3-d]pyrimidin-7(8H)-one] |
| 8.23 nM | 4.38 nM | C[C@]1(O)CCC[C@@H]1n1c(=O)ccc2cnc(NC3CCN(S(=O)(=O)CC(F)(F)F)CC3)nc21 (single isomer, unassigned) [Example 87, (+)-8-[(1R*,2R*)-2-hydroxy-2-methylcyclopentyl]-2-({1-[(2,2,2-trifluoroethyl)sulfonyl]piperidin-4-yl}amino)pyrido[2,3-d]pyrimidin-7(8H)-one] |
| 1.99 nM | 1.34 nM | C[C@@]1(O)CCC[C@H]1n1c(=O)ccc2cnc(NC3CCN(S(=O)(=O)C(F)(F)F)CC3)nc21 (single isomer, unassigned) [Example 88, (−)-8-[(1R*,2R*)-2-hydroxy-2-methylcyclopentyl]-2-({1-[(trifluoromethyl)sulfonyl]piperidin-4-yl}amino)pyrido[2,3-d]pyrimidin-7(8H)-one] |
| 0.88 nM | 0.25 nM | C[C@@]1(O)CCC[C@H]1n1c(=O)ccc2cnc(NC3CCN(S(=O)(=O)CC4CC4)CC3)nc21 (single isomer, unassigned) [Example 90, (−)-2-({1-[(cyclopropylmethyl)sulfonyl]piperidin-4-yl}amino)-8-[(1R*,2R*)-2-hydroxy-2-methylcyclopentyl]pyrido[2,3-d]pyrimidin-7(8H)-one] |
| 2.72 nM | 3.01 nM | C[C@]1(O)CCC[C@@H]1n1c(=O)ccc2cnc(NC3CCN(S(=O)(=O)CC4CC4)CC3)nc21 (single isomer, unassigned) [Example 91, (+)-2-({1-[(cyclopropylmethyl)sulfonyl]piperidin-4-yl}amino)-8-[(1R*,2R*)-2-hydroxy-2-methylcyclopentyl]pyrido[2,3-d]pyrimidin-7(8H)-one] |
| 0.33 nM | 0.09 nM | CNS(=O)(=O)N1CCC(Nc2ncc3cc(C)c(=O)n([C@@H]4CCC[C@@]4(C)O)c3n2)CC1 (single isomer, unassigned) [Example 94, (−)-4-({8-[(1R*,2R*)-2-hydroxy-2-methylcyclopentyl]-6-methyl-7-oxo-7,8-dihydropyrido[2,3-d]pyrimidin-2-yl}amino)-N-methylpiperidine-1-sulfonamide] |
| 1.06 nM | 0.24 nM | Cc1cc2cnc(NC3CCN(S(=O)(=O)NC4CCOCC4)CC3)nc2n([C@@H]2CCC[C@@]2(C)O)c1=O (single isomer, unassigned) [Example 96, (−)-4-({8-[(1R*,2R*)-2-hydroxy-2-methylcyclopentyl]-6-methyl-7-oxo-7,8-dihydropyrido[2,3-d]pyrimidin-2-yl}amino)-N-(tetrahydro-2H-pyran-4-yl)piperidine-1-sulfonamide] |
| 11.8 nM | 2.47 nM | Cc1cc2cnc(NC3CCN(S(=O)(=O)NC4CCOCC4)CC3)nc2n([C@H]2CCC[C@]2(C)O)c1=O (single isomer, unassigned) [Example 97, (+)-4-({8-[(1R*,2R*)-2-hydroxy-2-methylcyclopentyl]-6-methyl-7-oxo-7,8-dihydropyrido[2,3-d]pyrimidin-2-yl}amino)-N-(tetrahydro-2H-pyran-4-yl)piperidine-1-sulfonamide] |
| 0.74 nM | 0.33 nM | COC(C)(C)CNS(=O)(=O)N1CCC(Nc2ncc3cc(C)c(=O)n([C@@H]4CCC[C@@]4(C)O)c3n2)CC1 (single isomer, unassigned) [Example 98, (−)-4-({8-[(1R*,2R*)-2-hydroxy-2-methylcyclopentyl]-6-methyl-7-oxo-7,8-dihydropyrido[2,3-d]pyrimidin-2-yl}amino)-N-(2-methoxy-2-methylpropyl)piperidine-1-sulfonamide] |
| 14.3 nM | 2.88 nM | COC(C)(C)CNS(=O)(=O)N1CCC(Nc2ncc3cc(C)c(=O)n([C@H]4CCC[C@]4(C)O)c3n2)CC1 (single isomer, unassigned) [Example 99, (+)-4-({8-[(1R*,2R*)-2-hydroxy-2-methylcyclopentyl]-6-methyl-7-oxo-7,8-dihydropyrido[2,3-d]pyrimidin-2-yl}amino)-N-(2-methoxy-2-methylpropyl)piperidine-1-sulfonamide] |
| 0.77 nM | 0.14 nM | Cc1cc2cnc(NC3CCN(S(=O)(=O)NCC(C)(F)F)CC3)nc2n([C@@H]2CCC[C@@]2(C)O)c1=O (single isomer, unassigned) [Example 104, (−)-N-(2,2-difluoropropyl)-4-({8-[(1R*,2R*)-2-hydroxy-2-methylcyclopentyl]-6-methyl-7-oxo-7,8-dihydropyrido[2,3-d]pyrimidin-2-yl}amino)piperidine-1-sulfonamide] |
| 22.7 nM | 3.35 nM | Cc1cc2cnc(NC3CCN(S(=O)(=O)NCC(C)(F)F)CC3)nc2n([C@H]2CCC[C@]2(C)O)c1=O (single isomer, unassigned) [Example 105, (+)-N-(2,2-difluoropropyl)-4-({8-[(1R*,2R*)-2-hydroxy-2-methylcyclopentyl]-6-methyl-7-oxo-7,8-dihydropyrido[2,3-d]pyrimidin-2-yl}amino)piperidine-1-sulfonamide] |
| 0.28 nM | 0.1 nM | CCS(=O)(=O)N1CCC(Nc2ncc3cc(C)c(=O)n([C@@H]4CCC[C@@]4(C)O)c3n2)CC1 (single isomer, unassigned) [Example 110, (−)-2-{[1-(ethylsulfonyl)piperidin-4-yl]amino}-8-[(1R*,2R*)-2-hydroxy-2-methylcyclopentyl]-6-methylpyrido[2,3-d]pyrimidin-7(8H)-one] |
| 4.9 nM | 2.14 nM | CCS(=O)(=O)N1CCC(Nc2ncc3cc(C)c(=O)n([C@H]4CCC[C@]4(C)O)c3n2)CC1 (single isomer, unassigned) [Example 111, (+)-2-{[1-(ethylsulfonyl)piperidin-4-yl]amino}-8-[(1R*,2R*)-2-hydroxy-2-methylcyclopentyl]-6-methylpyrido[2,3-d]pyrimidin-7(8H)-one] |
| 1.24 nM | 0.12 nM | Cc1cc2cnc(NC3CCN(S(=O)(=O)C4CC4)CC3)nc2n([C@@H]2CCC[C@@]2(C)O)c1=O (single isomer, unassigned) [Example 112, (−)-2-{[1-(cyclopropylsulfonyl)piperidin-4-yl]amino}-8-[(1R*,2R*)-2-hydroxy-2-methylcyclopentyl]-6-methylpyrido[2,3-d]pyrimidin-7(8H)-one] |
| 4.15 nM | 1.99 nM | Cc1cc2cnc(NC3CCN(S(=O)(=O)C4CC4)CC3)nc2n([C@H]2CCC[C@]2(C)O)c1=O (single isomer, unassigned) [Example 113, (+)-2-{[1-(cyclopropylsulfonyl)piperidin-4-yl]amino}-8-[(1R*,2R*)-2-hydroxy-2-methylcyclopentyl]-6-methylpyrido[2,3-d]pyrimidin-7(8H)-one] |
| 0.15 nM | 0.17 nM | COCCS(=O)(=O)N1CCC(Nc2ncc3cc(C)c(=O)n([C@@H]4CCC[C@@]4(C)O)c3n2)CC1 (single isomer, unassigned) [Example 114, (−)-8-[(1R*,2R*)-2-hydroxy-2-methylcyclopentyl]-2-({1-[(2-methoxyethyl)sulfonyl]piperidin-4-yl}amino)-6-methylpyrido[2,3-d]pyrimidin-7(8H)-one] |
| 3.17 nM | 2.39 nM | COCCS(=O)(=O)N1CCC(Nc2ncc3cc(C)c(=O)n([C@H]4CCC[C@]4(C)O)c3n2)CC1 (single isomer, unassigned) [Example 115, (+)-8-[(1R*,2R*)-2-hydroxy-2-methylcyclopentyl]-2-({1-[(2-methoxyethyl)sulfonyl]piperidin-4-yl}amino)-6-methylpyrido[2,3-d]pyrimidin-7(8H)-one] |
| 0.21 nM | 0.15 nM | Cc1cc2cnc(NC3CCN(S(=O)(=O)CC4CC4)CC3)nc2n([C@@H]2CCC[C@@]2(C)O)c1=O (single isomer, unassigned) [Example 116, (−)-2-({1-[(cyclopropylmethyl)sulfonyl]piperidin-4-yl}amino)-8-[(1R*,2R*)-2-hydroxy-2-methylcyclopentyl]-6-methylpyrido[2,3-d]pyrimidin-7(8H)-one] |
| 2.46 nM | 1.74 nM | Cc1cc2cnc(NC3CCN(S(=O)(=O)CC4CC4)CC3)nc2n([C@H]2CCC[C@]2(C)O)c1=O (single isomer, unassigned) [Example 117, (+)-2-({1-[(cyclopropylmethyl)sulfonyl]piperidin-4-yl}amino)-8-[(1R*,2R*)-2-hydroxy-2-methylcyclopentyl]-6-methylpyrido[2,3-d]pyrimidin-7(8H)-one] |
| 4.36 nM | 0.34 nM | Cc1cc2cnc(NC3CCN(S(=O)(=O)CC(F)(F)F)CC3)nc2n([C@@H]2CCC[C@@]2(C)O)c1=O (single isomer, unassigned) [Example 118, (−)-8-[(1R*,2R*)-2-hydroxy-2-methylcyclopentyl]-6-methyl-2-({1-[(2,2,2-trifluoroethyl)sulfonyl]piperidin-4-yl}amino)pyrido[2,3-d]pyrimidin-7(8H)-one] |
| 4.15 nM | 2.87 nM | Cc1cc2cnc(NC3CCN(S(=O)(=O)CC(F)(F)F)CC3)nc2n([C@H]2CCC[C@]2(C)O)c1=O (single isomer, unassigned) [Example 119, (+)-8-[(1R*,2R*)-2-hydroxy-2-methylcyclopentyl]-6-methyl-2-({1-[(2,2,2-trifluoroethyl)sulfonyl]piperidin-4-yl}amino)pyrido[2,3-d]pyrimidin-7(8H)-one] |
| 0.82 nM | 2.15 nM | C[C@]1(O)CCC[C@@H]1n1c(=O)c(CC#N)cc2cnc(NC3CCN(S(C)(=O)=O)CC3)nc21 (single isomer, unassigned) [Example 121, (+)-(8-[(1R*,2R*)-2-hydroxy-2-methylcyclopentyl]-2-{[1-(methylsulfonyl)piperidin-4-yl]amino}-7-oxo-7,8-dihydropyrido[2,3-d]pyrimidin-6-yl)acetonitrile] |
